Data as given in PubChem BioAssay AID330 (DTP/NCI, 2004).
Several values for one entry are separate records, joined by “and”; a condition that tells them apart may be missing. Equal entries are not always repeated. Inconclusive results and toxic doses are left out.

System: P388 leukemia ip, CD2F1 mice, survival T/C
Test: NCI In Vivo Anticancer Drug Screen. Data for tumor model P388 Leukemia (intraperitoneal) in CD2F1 (CDF1) mice
Conditions: endpoint: median survival time, higher = longer survival
In short: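 Mice carrying the transplanted tumor received test compound or vehicle. Survival was recorded in each group, and the value is the treated-group measurement divided by that of the vehicle-treated control group.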

[1] = dose: 60.0 mg/kg/injection, schedule: Q01DX005 (ip), vehicle: saline with Tween-80
[2] = dose: 120.0 mg/kg/injection, schedule: Q01DX005 (ip), vehicle: saline with Tween-80
[3] = dose: 240.0 mg/kg/injection, schedule: Q01DX005 (ip), vehicle: saline with Tween-80
[4] = dose: 100.0 mg/kg/injection, schedule: Q04DX003 (ip), vehicle: saline
[5] = dose: 200.0 mg/kg/injection, schedule: Q04DX003 (ip), vehicle: saline
[6] = dose: 400.0 mg/kg/injection, schedule: Q04DX003 (ip), vehicle: saline
[7] = dose: 50.0 mg/kg/injection, schedule: Q01DX009 (ip), vehicle: saline
[8] = dose: 100.0 mg/kg/injection, schedule: Q01DX009 (ip), vehicle: saline
[9] = dose: 50.0 mg/kg/injection, schedule: Q01DX005 (ip), vehicle: Klucel (hydroxypropylcellulose) (HPC)
[10] = dose: 100.0 mg/kg/injection, schedule: Q01DX005 (ip), vehicle: Klucel (hydroxypropylcellulose) (HPC)
[11] = dose: 200.0 mg/kg/injection, schedule: Q01DX005 (ip), vehicle: Klucel (hydroxypropylcellulose) (HPC)

`COc1cc2c3c(cccc3c1)C(=O)N(CCN1CCCC1)C2=O` was tested, and the T/C (dose: 17.3 mg/kg/injection, schedule: Q01DX009 (ip), vehicle: saline with Tween-80) was 112 % of control, the T/C (dose: 34.7 mg/kg/injection, schedule: Q01DX009 (ip), vehicle: saline with Tween-80) was 116 % of control and the T/C (dose: 50.0 mg/kg/injection, schedule: Q04DX003 (ip), vehicle: Klucel (hydroxypropylcellulose) (HPC)) was 100 % of control. The T/C (dose: 69.3 mg/kg/injection, schedule: Q01DX009 (ip), vehicle: saline with Tween-80) was 116 % of control, the T/C (dose: 100.0 mg/kg/injection, schedule: Q04DX003 (ip), vehicle: Klucel (hydroxypropylcellulose) (HPC)) was 101 % of control and the T/C (dose: 200.0 mg/kg/injection, schedule: Q04DX003 (ip), vehicle: Klucel (hydroxypropylcellulose) (HPC)) was 100 % of control.

With `COCC(=O)C1(O)Cc2c(O)c3c(c(O)c2C(O)C1)C(=O)c1c(OC)cccc1C3=O` (configuration not stated) the T/C (dose: 1.56 mg/kg/injection, schedule: Q01DX009 (ip), vehicle: other) was 92 % of control, the T/C (dose: 3.13 mg/kg/injection, schedule: Q01DX009 (ip), vehicle: other) was 101 % of control and the T/C (dose: 6.25 mg/kg/injection, schedule: Q01DX009 (ip), vehicle: other) was 101 % of control. The T/C (dose: 12.5 mg/kg/injection, schedule: Q01DX009 (ip), vehicle: other) was 94 % of control and the T/C (dose: 25.0 mg/kg/injection, schedule: Q01DX009 (ip), vehicle: other) was 92 % of control.

In the case of `CCC1(c2ccc(C)cc2)C(=O)NC(=S)NC1=O`, the T/C [1] is reported as 102 % of control and the T/C [2] is reported as 94 % of control.

For `O=C1N[C@@H]2C(=C[C@H](O)[C@@H](O)[C@H]2O)c2cc3c(c(O)c21)OCO3`, the T/C (dose: 0.62 mg/kg/injection, schedule: Q01DX009 (ip), vehicle: saline with Tween-80) was 110 % of control, the T/C (dose: 5.0 mg/kg/injection, schedule: Q01DX009 (ip), vehicle: saline with Tween-80) was 100 % of control and the T/C (dose: 10.0 mg/kg/injection, schedule: Q01DX009 (ip), vehicle: saline with Tween-80) was 87 % of control.

`O=S(=O)(Nc1ccnn1-c1ccccc1)c1ccc(N=Cc2c3ccccc3nc3cc(Cl)ccc23)cc1` was tested, and the T/C [1] was 94 % of control, the T/C [2] was 91 % of control and the T/C [3] was 102 % of control.

In the case of `Cc1ccc(S(=O)(=O)/C=C/C(=O)c2ccc3ccccc3c2)cc1`, the T/C [4] is reported as 103 % of control, the T/C [5] is reported as 103 % of control and the T/C [6] is reported as 100 % of control.

With `CCOc1c(N=Nc2ccccc2Cl)c(C)nn1C(=S)S` the T/C (dose: 15.0 mg/kg/injection, schedule: Q01DX005 (ip), vehicle: Klucel + Tween-80) was 95 % of control, the T/C (dose: 30.0 mg/kg/injection, schedule: Q01DX005 (ip), vehicle: Klucel + Tween-80) was 100 % of control and the T/C (dose: 60.0 mg/kg/injection, schedule: Q01DX005 (ip), vehicle: Klucel + Tween-80) was 96 % of control.

For `Cn1nc(-c2ccccc2)c(-c2cc(-c3ccccc3)n[nH]2)c(N)c1=O`, the T/C [1] was 87 % of control, the T/C [2] was 89 % of control and the T/C [3] was 97 % of control.

With `CC1=C(C#N)C2(N)OC1(C)C1C(=O)C=CC(=O)C12` (configuration not stated) the T/C (dose: 50.0 mg/kg/injection, schedule: Q01DX005 (ip), vehicle: saline with Tween-80) was 110 % of control, the T/C (dose: 100.0 mg/kg/injection, schedule: Q01DX005 (ip), vehicle: saline with Tween-80) was 107 % of control and the T/C (dose: 200.0 mg/kg/injection, schedule: Q01DX005 (ip), vehicle: saline with Tween-80) was 108 % of control.

With `CCOC(=O)/C(C#N)=C(\CC)c1cc(Cl)cc(Cl)c1O` the T/C [1] was 100 % of control, the T/C [2] was 90 % of control and the T/C [3] was 96 % of control.

With `CC(=O)/C=C/c1ccc(Cl)c(Cl)c1` the T/C (dose: 50.0 mg/kg/injection, schedule: Q01DX009 (ip), vehicle: saline with Tween-80) was 118 % of control, the T/C (dose: 100.0 mg/kg/injection, schedule: Q01DX009 (ip), vehicle: saline with Tween-80) was 111 % of control and the T/C (dose: 200.0 mg/kg/injection, schedule: Q01DX009 (ip), vehicle: saline with Tween-80) was 111 % of control.

With `NC(=S)N/N=C/c1ncccc1O` the T/C (dose: 25.0 mg/kg/injection, schedule: Q01DX009 (ip), vehicle: saline) was 158 % of control, the T/C (dose: 50.0 mg/kg/injection, schedule: Q01DX005 (ip), vehicle: saline) was 155 % of control and the T/C [7] was 151 % of control and 158 % of control. For the same compound, the T/C (dose: 100.0 mg/kg/injection, schedule: Q01DX005 (ip), vehicle: saline) was 162 % of control, the T/C (dose: 100.0 mg/kg/injection, schedule: Q01DX005 (ip), vehicle: suspension in saline) was 167 % of control and the T/C [8] was 180 % of control. The T/C (dose: 200.0 mg/kg/injection, schedule: Q01DX005 (ip), vehicle: saline) was 157 % of control and the T/C (dose: 200.0 mg/kg/injection, schedule: Q01DX005 (ip), vehicle: suspension in saline) was 90 % of control.

In the case of `CN(C)P(=O)(N=S=NC(C)(C)C)N(C)C`, the T/C [7] is reported as 109 % of control and the T/C [8] is reported as 115 % of control.

For `C=C(Cl)C(=NC(C)(C)C)Nc1ccc(C(=O)OCC)cc1`, the T/C [9] was 103 % of control, the T/C [10] was 100 % of control and the T/C [11] was 118 % of control.

`Cc1ccc2nc(CC(=O)c3ccc(F)cc3)c(=O)[nH]c2c1` was tested, and the T/C [1] was 100 % of control, the T/C [2] was 100 % of control and the T/C [3] was 107 % of control.

For `O=c1ccn2c(n1)OC1C(O)C(CO)OC12` (configuration not stated), the T/C (dose: 50.0 mg/kg/injection, schedule: Q04DX003 (ip), vehicle: saline) was 100 % of control, the T/C [4] was 103 % of control and the T/C [5] was 102 % of control. For the same compound, the T/C [6] was 91 % of control.

In the case of `CCOc1cc(/C=N\NC(=O)C(=O)N/N=C\c2ccc(O)c(OCC)c2)ccc1O`, the T/C (dose: 50.0 mg/kg/injection, schedule: Q01DX009 (ip), vehicle: Klucel (hydroxypropylcellulose) (HPC)) is reported as 96 % of control, the T/C (dose: 100.0 mg/kg/injection, schedule: Q01DX009 (ip), vehicle: Klucel (hydroxypropylcellulose) (HPC)) is reported as 94 % of control and the T/C (dose: 200.0 mg/kg/injection, schedule: Q01DX009 (ip), vehicle: Klucel (hydroxypropylcellulose) (HPC)) is reported as 94 % of control.

In the case of `Nc1[nH]c(=S)[nH]c(=O)c1N=Cc1ccc(Cl)c(Cl)c1`, the T/C (dose: 50.0 mg/kg/injection, schedule: Q01DX001 (ip), vehicle: Klucel (hydroxypropylcellulose) (HPC)) is reported as 100 % of control, the T/C (dose: 100.0 mg/kg/injection, schedule: Q01DX001 (ip), vehicle: Klucel (hydroxypropylcellulose) (HPC)) is reported as 100 % of control and 102 % of control and 114 % of control and the T/C (dose: 200.0 mg/kg/injection, schedule: Q01DX001 (ip), vehicle: Klucel (hydroxypropylcellulose) (HPC)) is reported as 103 % of control (2×) and 116 % of control. The T/C (dose: 400.0 mg/kg/injection, schedule: Q01DX001 (ip), vehicle: Klucel (hydroxypropylcellulose) (HPC)) was 107 % of control and 110 % of control.

In the case of `Cc1ccc(C2OC(N)=C(O)C2=O)cc1` (configuration not stated), the T/C (dose: 60.0 mg/kg/injection, schedule: Q01DX005 (ip), vehicle: Klucel (hydroxypropylcellulose) (HPC)) is reported as 107 % of control, the T/C (dose: 120.0 mg/kg/injection, schedule: Q01DX005 (ip), vehicle: Klucel (hydroxypropylcellulose) (HPC)) is reported as 100 % of control and the T/C (dose: 240.0 mg/kg/injection, schedule: Q01DX005 (ip), vehicle: Klucel (hydroxypropylcellulose) (HPC)) is reported as 93 % of control.

In the case of `CC(=O)CC(C)=NCC(C)N=C(C)CC(C)=O.c1cc[c]([Sn][c]2ccccc2)cc1` (configuration not stated), the T/C (dose: 2.5 mg/kg/injection, schedule: Q01DX009 (ip), vehicle: saline) is reported as 154 % of control, the T/C (dose: 5.0 mg/kg/injection, schedule: Q01DX009 (ip), vehicle: saline) is reported as 158 % of control and 162 % of control and the T/C (dose: 10.0 mg/kg/injection, schedule: Q01DX009 (ip), vehicle: saline) is reported as 185 % of control.

In the case of `CC(C)(C)[Si](C)(C)ONC(N)=O`, the T/C (dose: 12.5 mg/kg/injection, schedule: Q01DX009 (ip), vehicle: distilled water + Tween-80) is reported as 99 % of control, the T/C (dose: 25.0 mg/kg/injection, schedule: Q01DX009 (ip), vehicle: distilled water + Tween-80) is reported as 94 % of control and the T/C (dose: 50.0 mg/kg/injection, schedule: Q01DX009 (ip), vehicle: distilled water + Tween-80) is reported as 93 % of control. The T/C (dose: 100.0 mg/kg/injection, schedule: Q01DX009 (ip), vehicle: distilled water + Tween-80) was 88 % of control and the T/C (dose: 200.0 mg/kg/injection, schedule: Q01DX009 (ip), vehicle: distilled water + Tween-80) was 90 % of control.

In the case of `CC(C)c1nc2c(c(=O)o1)CCS2`, the T/C [9] is reported as 100 % of control, the T/C [10] is reported as 98 % of control and the T/C [11] is reported as 98 % of control.

`CCc1cccc2c(NCCCCNc3c4ccccc4nc4c(CC)cccc34)c3ccccc3nc12` was tested, and the T/C (dose: 0.62 mg/kg/injection, schedule: Q## X009 (ip), vehicle: lactic acid) was 93 % of control, the T/C (dose: 1.25 mg/kg/injection, schedule: Q## X009 (ip), vehicle: lactic acid) was 100 % of control and the T/C (dose: 2.5 mg/kg/injection, schedule: Q## X009 (ip), vehicle: lactic acid) was 99 % of control. For the same compound, the T/C (dose: 5.0 mg/kg/injection, schedule: Q## X009 (ip), vehicle: lactic acid) was 91 % of control.
